According to PubChem BioAssay (NCI):
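Dose response: 5 concentrations. Exposure: 48 h. Format: 96-well plates. Endpoint: linear interpolation; highest concentration if not reached. At the TGI there is no net growth.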

Experiments:
Experiment in all cases: growth of human tumour cells (NCI), 48 h
SK-MEL-5 melanoma = tested on: SK-MEL-5 melanoma
SF-268 CNS = tested on: SF-268 CNS
LOX IMVI melanoma = tested on: LOX IMVI melanoma
786-0 renal = tested on: 786-0 renal
NCI-H226 lung = tested on: NCI-H226 lung
CCRF-CEM leukemia = tested on: CCRF-CEM leukemia
BT-549 breast = tested on: BT-549 breast
SF-295 CNS = tested on: SF-295 CNS
MALME-3M melanoma = tested on: MALME-3M melanoma
NCI-H460 lung = tested on: NCI-H460 lung
HOP-62 NSCLC = tested on: HOP-62 NSCLC
COLO 205 colon = tested on: COLO 205 colon
PC-3 prostate = tested on: PC-3 prostate
SNB-75 CNS = tested on: SNB-75 CNS
OVCAR-5 ovarian = tested on: OVCAR-5 ovarian
U251 CNS = tested on: U251 CNS
NCI/ADR-RES ovarian = tested on: NCI/ADR-RES ovarian
SF-539 CNS = tested on: SF-539 CNS
MDA-MB-435 = tested on: MDA-MB-435
KM12 colon = tested on: KM12 colon
MCF7 breast = tested on: MCF7 breast
UACC-257 melanoma = tested on: UACC-257 melanoma
SK-MEL-2 melanoma = tested on: SK-MEL-2 melanoma
TK-10 renal = tested on: TK-10 renal
UACC-62 melanoma = tested on: UACC-62 melanoma
CAKI-1 renal = tested on: CAKI-1 renal
T-47D breast = tested on: T-47D breast
HS 578T breast = tested on: HS 578T breast
UO-31 renal = tested on: UO-31 renal
HCT-116 colon = tested on: HCT-116 colon
MDA-MB-231 breast = tested on: MDA-MB-231 breast
NCI-H522 lung = tested on: NCI-H522 lung
SN12C renal = tested on: SN12C renal
HOP-92 NSCLC = tested on: HOP-92 NSCLC
HCC-2998 colon = tested on: HCC-2998 colon
OVCAR-3 ovarian = tested on: OVCAR-3 ovarian
MDA-N = tested on: MDA-N
NCI-H23 lung = tested on: NCI-H23 lung
OVCAR-8 ovarian = tested on: OVCAR-8 ovarian
K-562 leukemia = tested on: K-562 leukemia
RXF 393 renal = tested on: RXF 393 renal
ACHN renal = tested on: ACHN renal
HT29 colon = tested on: HT29 colon
OVCAR-4 ovarian = tested on: OVCAR-4 ovarian
A498 renal = tested on: A498 renal
SNB-19 CNS = tested on: SNB-19 CNS
RPMI-8226 leukemia = tested on: RPMI-8226 leukemia
HL-60(TB) leukemia = tested on: HL-60(TB) leukemia
A549 NSCLC = tested on: A549 NSCLC
SK-MEL-28 melanoma = tested on: SK-MEL-28 melanoma
MOLT-4 leukemia = tested on: MOLT-4 leukemia
IGROV1 ovarian = tested on: IGROV1 ovarian
HCT-15 colon = tested on: HCT-15 colon
M14 melanoma = tested on: M14 melanoma
DU-145 prostate = tested on: DU-145 prostate
SK-OV-3 ovarian = tested on: SK-OV-3 ovarian
EKVX NSCLC = tested on: EKVX NSCLC

## COc1ccc(C2C(C#N)=C(S)N(C3OC(COC(C)=O)C(OC(C)=O)C(OC(C)=O)C3OC(C)=O)C(c3ccccc3)=C2C(C)=O)cc1 (centres undefined)
SK-MEL-5 melanoma
  TGI: > 100 µM
SF-268 CNS
  TGI: > 100 µM
LOX IMVI melanoma
  TGI: > 100 µM
786-0 renal
  TGI: > 100 µM
NCI-H226 lung
  TGI: > 100 µM
CCRF-CEM leukemia
  TGI: > 100 µM
BT-549 breast
  TGI: > 100 µM
SF-295 CNS
  TGI: > 100 µM
MALME-3M melanoma
  TGI: > 100 µM
NCI-H460 lung
  TGI: > 100 µM
HOP-62 NSCLC
  TGI: > 100 µM
COLO 205 colon
  TGI: > 100 µM
PC-3 prostate
  TGI: > 100 µM
SNB-75 CNS
  TGI: > 100 µM
OVCAR-5 ovarian
  TGI: > 100 µM
U251 CNS
  TGI: > 100 µM
NCI/ADR-RES ovarian
  TGI: > 100 µM
SF-539 CNS
  TGI: > 100 µM
MDA-MB-435
  TGI: > 100 µM
KM12 colon
  TGI: > 100 µM
MCF7 breast
  TGI: > 100 µM
UACC-257 melanoma
  TGI: > 100 µM
SK-MEL-2 melanoma
  TGI: > 100 µM
TK-10 renal
  TGI: > 100 µM
UACC-62 melanoma
  TGI: > 100 µM
CAKI-1 renal
  TGI: > 100 µM
T-47D breast
  TGI: 80.1 µM
HS 578T breast
  TGI: > 100 µM
UO-31 renal
  TGI: 99.5 µM
HCT-116 colon
  TGI: > 100 µM
MDA-MB-231 breast
  TGI: > 100 µM
NCI-H522 lung
  TGI: > 100 µM
SN12C renal
  TGI: > 100 µM
HOP-92 NSCLC
  TGI: > 100 µM
HCC-2998 colon
  TGI: > 100 µM
OVCAR-3 ovarian
  TGI: > 100 µM
MDA-N
  TGI: > 100 µM
NCI-H23 lung
  TGI: > 100 µM
OVCAR-8 ovarian
  TGI: > 100 µM
K-562 leukemia
  TGI: > 100 µM
RXF 393 renal
  TGI: > 100 µM
ACHN renal
  TGI: > 100 µM
HT29 colon
  TGI: > 100 µM
OVCAR-4 ovarian
  TGI: > 100 µM
A498 renal
  TGI: > 100 µM
SNB-19 CNS
  TGI: > 100 µM
RPMI-8226 leukemia
  TGI: > 100 µM
HL-60(TB) leukemia
  TGI: > 100 µM
A549 NSCLC
  TGI: > 100 µM
SK-MEL-28 melanoma
  TGI: > 100 µM
MOLT-4 leukemia
  TGI: > 100 µM
IGROV1 ovarian
  TGI: > 100 µM
HCT-15 colon
  TGI: > 100 µM
M14 melanoma
  TGI: > 100 µM
DU-145 prostate
  TGI: > 100 µM

## COc1c(-c2nc3nc(N4CCN(C)CC4)ccc3[nH]2)cc(OC)c2c1nc(COC(C)=O)n2C
SK-MEL-5 melanoma
  TGI: > 100 µM
SF-268 CNS
  TGI: > 100 µM
LOX IMVI melanoma
  TGI: > 100 µM
786-0 renal
  TGI: > 100 µM
NCI-H226 lung
  TGI: > 100 µM
BT-549 breast
  TGI: > 100 µM
SF-295 CNS
  TGI: > 100 µM
MALME-3M melanoma
  TGI: > 100 µM
HOP-62 NSCLC
  TGI: > 100 µM
COLO 205 colon
  TGI: > 100 µM
PC-3 prostate
  TGI: > 100 µM
OVCAR-5 ovarian
  TGI: > 100 µM
U251 CNS
  TGI: > 100 µM
NCI/ADR-RES ovarian
  TGI: > 100 µM
MDA-MB-435
  TGI: > 100 µM
KM12 colon
  TGI: > 100 µM
MCF7 breast
  TGI: > 100 µM
UACC-257 melanoma
  TGI: > 100 µM
SK-MEL-2 melanoma
  TGI: > 100 µM
TK-10 renal
  TGI: 0.0263 µM
UACC-62 melanoma
  TGI: > 100 µM
SK-OV-3 ovarian
  TGI: > 100 µM
CAKI-1 renal
  TGI: > 100 µM
T-47D breast
  TGI: > 100 µM
HS 578T breast
  TGI: > 100 µM
UO-31 renal
  TGI: > 100 µM
HCT-116 colon
  TGI: > 100 µM
MDA-MB-231 breast
  TGI: > 100 µM
NCI-H522 lung
  TGI: > 100 µM
SN12C renal
  TGI: > 100 µM
HOP-92 NSCLC
  TGI: > 100 µM
OVCAR-3 ovarian
  TGI: > 100 µM
MDA-N
  TGI: > 100 µM
NCI-H23 lung
  TGI: > 100 µM
OVCAR-8 ovarian
  TGI: > 100 µM
K-562 leukemia
  TGI: > 100 µM
RXF 393 renal
  TGI: > 100 µM
ACHN renal
  TGI: > 100 µM
HT29 colon
  TGI: > 100 µM
OVCAR-4 ovarian
  TGI: > 100 µM
A498 renal
  TGI: > 100 µM
SNB-19 CNS
  TGI: > 100 µM
A549 NSCLC
  TGI: > 100 µM
MOLT-4 leukemia
  TGI: > 100 µM
IGROV1 ovarian
  TGI: > 100 µM
HCT-15 colon
  TGI: > 100 µM
M14 melanoma
  TGI: > 100 µM
DU-145 prostate
  TGI: > 100 µM
EKVX NSCLC
  TGI: > 100 µM
